How the values were obtained:
eIF2 WT = target: T1, eIF2 WT (Saccharomyces cerevisiae, UniProt P32481); experiment: Steady-state fluorescence titration of 100 nM BODIPY-FL nucleotide with increasing apo-eIF2 (490 nm excitation, 509 nm emission) in 30 mM HEPES, 100 mM KCl, 10 mM MgCl2, pH 7.4, at room temperature, fitted to a single-site binding model.
T1 construct: gene GCD11; purified apo-eIF2 heterotrimer; V5-SUI3 (N-terminal V5 tag on eIF2β), SUI2, His6-GCD11; nucleotide-free after EDTA dialysis
T1 sequence (P32481 whole entry): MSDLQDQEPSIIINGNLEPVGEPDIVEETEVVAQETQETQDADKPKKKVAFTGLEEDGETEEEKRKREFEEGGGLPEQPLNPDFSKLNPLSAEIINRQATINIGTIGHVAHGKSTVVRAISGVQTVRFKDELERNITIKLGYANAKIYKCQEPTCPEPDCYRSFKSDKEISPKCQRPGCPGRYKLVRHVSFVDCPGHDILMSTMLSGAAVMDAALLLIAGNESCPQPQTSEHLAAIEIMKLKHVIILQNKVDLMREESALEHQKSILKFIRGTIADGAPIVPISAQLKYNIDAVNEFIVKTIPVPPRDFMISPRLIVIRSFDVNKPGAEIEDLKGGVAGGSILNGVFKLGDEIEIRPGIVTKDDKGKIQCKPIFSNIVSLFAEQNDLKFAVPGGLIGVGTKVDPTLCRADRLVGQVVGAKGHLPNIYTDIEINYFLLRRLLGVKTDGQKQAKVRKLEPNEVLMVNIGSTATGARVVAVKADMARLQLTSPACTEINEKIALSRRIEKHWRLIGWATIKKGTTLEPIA
T1 sequence (P20459 whole entry partner): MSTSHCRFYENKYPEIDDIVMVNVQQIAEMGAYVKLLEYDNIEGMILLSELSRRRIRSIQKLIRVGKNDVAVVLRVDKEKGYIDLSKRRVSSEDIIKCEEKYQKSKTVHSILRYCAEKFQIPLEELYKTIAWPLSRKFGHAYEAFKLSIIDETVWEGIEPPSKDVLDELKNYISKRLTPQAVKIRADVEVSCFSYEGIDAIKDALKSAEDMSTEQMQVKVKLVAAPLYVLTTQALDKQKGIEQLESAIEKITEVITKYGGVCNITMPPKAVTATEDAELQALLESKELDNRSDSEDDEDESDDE
T1 sequence (P09064 whole entry partner): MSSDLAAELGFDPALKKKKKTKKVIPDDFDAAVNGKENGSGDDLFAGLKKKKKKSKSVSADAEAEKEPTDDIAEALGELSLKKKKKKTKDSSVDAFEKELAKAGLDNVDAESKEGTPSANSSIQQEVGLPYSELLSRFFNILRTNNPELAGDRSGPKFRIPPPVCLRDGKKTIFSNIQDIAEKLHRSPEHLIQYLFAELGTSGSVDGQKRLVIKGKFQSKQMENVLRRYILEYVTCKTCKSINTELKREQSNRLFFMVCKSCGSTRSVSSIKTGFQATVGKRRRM
Protocol: (§1) To assay nucleotide affinity, fluorescence intensity of 100 nM of BODIPY-FL-GDP or BODIPY-FL-GTP (Thermo Fisher Scientific) in 180 μl of assay buffer (30 mM HEPES, 100 mM KCl, 10 mM MgCl2, pH 7.4) was measured using a Fluoromax-4 spectrophotometer (Horiba) (490 nm excitation, 509 nm emission). Yeast Met–tRNAi was assayed in a similar manner using 20 nM BOP-N-Met–tRNAi (tRNA probes) but with the addition of 1 mM GTP. Change in fluorescence intensity was measured upon addition of increasing amounts of apo–eIF2, incubating for 5 min at room temperature each time. Each measurement was blanked against a control without nucleotide to account for any affect of eIF2 and data were corrected for dilution effects caused by volume addition and normalized to starting values before being fitted to a single site binding model: y = 1 + [(ΔFmax - 1)*(x/(x + Kd))].
(§2) eIF2 was purified from yeast strains GP7145 and GP7146 expressing V5-sui3-E189K or the V5-SUI3 derivatives of eIF2β by sequential nickel affinity, HiTrap Heparin and HiTrap Q sepharose chromatography as described ([14]). To obtain apo–eIF2 free from nucleotide, eIF2 was dialysed with EDTA (30 mM HEPES, 100 mM KCl, 1 mM DTT, 1 mM EDTA, 10% glycerol, pH 7.4) then with magnesium (30 mM HEPES, 100 mM KCl, 1 mM DTT, 0.1 mM MgCl2, 10% glycerol, pH 7.4).
(§3) Figure 4. […] (A) Affinity (Kd) of GDP, GTP and Met–tRNAi to purified WT and mutant (β E189K) apo–eIF2 complexes measured by monitoring the fluorescence intensity of 100 nM BODIPY-FL-GDP (left), 100 nM BODIPY-FL-GTP (middle) or 20 nM BOP-N-Met–tRNAi with 1 mM GTP (right). […] K1/2 and Kmax values were determined from curve fitting y = [(Kmax × x)/(K1/2 + x)] + c. (C) Western blotting of IP of Flag-eIF2β, Flag-E189K and an untagged control from cells showing its co-association with known binding proteins. Quantification of at least three repeats using Li-Cor fluorescent secondary antibodies ±SE. […] Tif5 is indicated with an arrow, ‘♦’ marks a non-specific band.

[1] = target: T2, eIF2 (β E189K), eIF2βE189K (Saccharomyces cerevisiae, UniProt P09064+P32481, E189K); experiment: as above
T2 construct: purified apo-eIF2 heterotrimer; V5-sui3-E189K (N-terminal V5 tag on eIF2β), SUI2, His6-GCD11; nucleotide-free after EDTA dialysis
T2 sequence (P09064 whole entry E189K): as the sequence (P09064 whole entry partner) above, with E189K counted along it
T2 sequence (P32481 whole entry): as the sequence (P32481 whole entry) above
T2 sequence (P20459 whole entry, stated change not applied, further chain): as the sequence (P20459 whole entry partner) above
Protocol: as §1, §2, §3

[2] = GDP dissociation assay, intrinsic BODIPY-GDP off-rate; format: binding; conditions: 20 nM eIF2•BODIPY-GDP, 1 mM unlabelled GDP, 0 nM eIF2B
Protocol: (§4) Fluorescent eIF2•BODIPY-GDP binary complex was formed by incubating apo–eIF2 with a 2× excess of BODIPY-FL-GDP (Thermo Fisher Scientific) for 20 min at room temperature. Excess nucleotide was removed by passing through a G-50 sephadex column (GE Healthcare). Labelling efficiency was calculated to exceed 90%. […] K1/2 and Kmax values were determined from curve fitting y = [(Kmax × x)/(K1/2 + x)] + c.

eIF5 = eIF5 GDI activity, BODIPY-GDP release with GST-eIF5; format: biochemical, yeast; conditions: eIF2•BODIPY-GDP 20 nM, purified eIF5 0–80 nM
Sequence of eIF5 (P38431 whole entry): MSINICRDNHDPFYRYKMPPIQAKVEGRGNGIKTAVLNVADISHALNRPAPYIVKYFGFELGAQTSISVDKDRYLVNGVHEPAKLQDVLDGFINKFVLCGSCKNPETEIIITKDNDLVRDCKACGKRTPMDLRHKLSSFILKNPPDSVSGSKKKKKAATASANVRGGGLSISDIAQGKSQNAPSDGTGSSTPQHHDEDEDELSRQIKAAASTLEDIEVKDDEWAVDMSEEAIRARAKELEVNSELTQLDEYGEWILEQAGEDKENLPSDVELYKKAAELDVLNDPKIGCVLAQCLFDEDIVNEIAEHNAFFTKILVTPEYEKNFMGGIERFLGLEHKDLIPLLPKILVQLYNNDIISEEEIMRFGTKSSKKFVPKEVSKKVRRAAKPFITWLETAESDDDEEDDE
Sequence of eIF5 (P32481 whole entry, further chain): as the sequence (P32481 whole entry) above
Sequence of eIF5 (P20459 whole entry, further chain): as the sequence (P20459 whole entry partner) above
Protocol: as §4
We therefore decided to assess eIF5 GDI activity directly. We monitored eIF5 GDI activity by incubating eIF2•BODIPY-GDP (20 nM) with purified eIF5 (0–80 nM) and recorded the fluorescence change upon dissociation of BODIPY-GDP from eIF2.

Met–tRNAi = experiment: Steady state fluorescence, BOP-N-Met-tRNAi binding to apo-eIF2; set-up: species or system Yeast; conditions: 20 nM BOP-N-Met-tRNAi with 1 mM GTP, purified apo-eIF2
Protocol: as §1

HIS4-LacZ [3] = test system: HIS4-LacZ; set-up: method as in PMID 16153175; conditions: by GAAC via increased GCN4 translation in the presence of 3AT; cited from earlier work
sif285-1 GCN2 cells = experiment: Growth on SD ±3AT media; format: cell-based, yeast; conditions: sif285-1 cells transformed with WT GCN2 plasmid
Protocol: Strains used and generated in this work are derivatives of S288c and are described in Supplementary Table S1. Cell growth was performed at 30°C in standard yeast rich (YPD), synthetic defined minimal (SD) or synthetic complete (SC) media lacking nutrients for plasmid selection. All media have 2% glucose as a carbon source ([25]). 3-Amino-1,2,4-triazole (3AT) (Fluka) was added where indicated. For serial dilution growth assays, cells were grown to A600 = 0.6, diluted to 0.1 and 2–3 μl of 10-fold dilutions were spotted on the agar surface. Plasmid shuffling to select for loss of URA3 plasmids employed 5-fluoro-orotic acid (5-FOA; Sigma-Aldrich), while loss of LEU2 plasmids relied on passive loss during unselected growth and subsequent screening. Mating type switching employed HO plasmid pAV1621 (pHO1.5) followed by 5-FOA, sporulation, tetrad dissection and mating type testing ([25]). gcd6Δ sui3Δ double deletion strains (GP7216-19) were made by polymerase chain reaction (PCR) amplifying gcd6Δ::KanMX cassette from a BY4743 gcd6Δ::KanMX/GCD6 diploid strain (GP4146) and transforming the DNA fragment into sui3Δ gcn2Δ [SUI3-Flag TRP1] [GCD6 URA3] strains to generate G418 resistant cells unable to lose the covering GCD6 plasmid upon 5-FOA selection.

HIS4-LacZ [4] = experiment: β-galactosidase assay of HIS4-LacZ fusion; format: cell-based, yeast; conditions: sif285-1 cells bearing GCD6, 3AT treatment
Protocol: Measurement of β-galactosidase levels from a HIS4-LacZ fusion genomically-integrated at ura3-52 was performed exactly as described ([36]) using whole protein extracts from cells grown in SC medium lacking histidine and uracil or following addition of 10 mM 3AT for 6 h. Units are nmole o-nitrophenyl-β-D-galacto-pyranoside cleaved/min/μg total protein ± SE, n = 3.

[5] = target: eIF2^βE189K (V5-eIF2β-E189K, eIF2α, His6-eIF2γ), purified (S. cerevisiae) (UniProt P09064)
Sequence of eIF2^βE189K (V5-eIF2β-E189K, eIF2α, His6-eIF2γ), purified (S. cerevisiae) (P09064 whole entry E189K, chain 1 of 3): as the sequence (P09064 whole entry partner) above, with E189K counted along it
Sequence of eIF2^βE189K (V5-eIF2β-E189K, eIF2α, His6-eIF2γ), purified (S. cerevisiae) (chain, as listed by the source E189K E189K, chain 2 of 3): as the sequence (P20459 whole entry partner) above
Sequence of eIF2^βE189K (V5-eIF2β-E189K, eIF2α, His6-eIF2γ), purified (S. cerevisiae) (chain, as listed by the source E189K E189K, chain 3 of 3): as the sequence (P32481 whole entry) above

**Q.** With `Cc1cc(C)n2c1C=C1C=CC(CCC(=O)NCCNC(=O)OC3C(COP(=O)(O)OP(=O)(O)OP(=O)(O)O)OC(n4cnc5c(=O)[nH]c(N)nc54)C3O)=[N+]1[B-]2(F)F` (centres unmarked) [BODIPY-FL-GTP, guanosine 5'-triphosphate, BODIPY FL 2'-(or-3')-O-(N-(2-aminoethyl)urethane)] as the compound, how does the Kd (eIF2 WT) read?
**A.** 0.0352 µM

**Q.** And the Kd [1]?
**A.** 0.032 µM

**Q.** Which “Koff BODIPY-GDP” value [2] does the source give for “eIF2 WT: Wild-type yeast translation initiation factor eIF2 complex purified from an overexpression yeast strain (V5-SUI3)” here?
**A.** 0.00487 ± 0.000417 s⁻¹

**Q.** And the “stabilization of GDP binding by eIF5 (GDI activity)” value (eIF5)?
**A.** stabilized by eIF5

**Q.** What about the Kd (Met–tRNAi) of the same compound?
**A.** 0.0028 µM

**Q.** Which Kd (eIF2 WT) does the source give for `Cc1cc(C)n2c1C=C1C=CC(CCC(=O)NCCNC(=O)OC3C(COP(=O)(O)OP(=O)(O)O)OC(n4cnc5c(=O)[nH]c(N)nc54)C3O)=[N+]1[B-]2(F)F` (centres unmarked) [BODIPY-FL-GDP, guanosine 5'-diphosphate, BODIPY FL 2'-(or-3')-O-(N-(2-aminoethyl)urethane)] here?
**A.** 0.0191 µM

**Q.** What about the Kd [1] of the same compound?
**A.** 0.0193 µM

**Q.** With `Nc1nc[nH]n1` [3AT, 3-Amino-1,2,4-triazole] as the compound, how does the HIS4 transcription derepression (HIS4-LacZ [3]) read?
**A.** ~2 fold

**Q.** What about the cell growth (sif285-1 GCN2 cells) of the same compound?
**A.** impaired

**Q.** And the HIS4-LacZ expression (HIS4-LacZ [4])?
**A.** not derepressed

**Q.** Which K1/2 of eIF2B for GEF-promoted release of BODIPY-FL-GDP from purified eIF2•BODIPY-GDP (20 nM), room temperature [5] does the source give for “eIF2B, P14741 1-305; P32502 1-381; P09032 1-578; P12754 1-651; P32501 1-712” here?
**A.** 92.6 nM
